Series [1] in a line: Oxidative status (peroxide value, anisidine value) of starting materials and products as obtained, CDR FoodLab Junior analyzer. Type of series: physicochemical. The following applies: as obtained / as used, before storage. As for the experimental part:
The final product in powder form is isolated by evaporating said first and second organic solvents and water from the reaction mixture to recover said basic amino acid salts of PUFAs. Preferably, said evaporation step is carried under reduced pressure between about 0° C.-70° C. depending on the properties of the equipment used. […] The evaporation step requires said first/second organic solvents and water to be in a liquid form, thereby excluding the freeze-drying methods that require the solvents to be frozen. The oxidative status of the obtained final product is quantified by peroxide value (PV), anisidine value (AV) and Totox value. PV is a measure of the level of the primary oxidation products (lipid hydroperoxides) in the product, which is specified in milliequivalents O2 per kg of sample, while the AV is an unspecific measure of saturated and unsaturated carbonyl compounds. Totox is calculated by the equation Totox=2*PV+AV.
(§1) Food Lab Analyzer: Among several techniques known in the art for determining the oxidative levels of a sample, CDR FoodLab® Junior analyzer is used herein for determining PV and AV. The procedures are described as below.
(§2) The solid product 0.5 g was dissolved in 2 mL of MeOH and HCl solution with the ratio of 1:10 (v/v). The mixture was stirred for 5 minutes, followed by the addition of 5 mL of water. The mixture was extracted with 3 mL of Hexane containing 100 ppm butylated hydroxytoluene (BHT). The organic layer was dried over MgSO4, filtrated and evaporated under reduced pressure at the temperature of 0-70° C. to get the fish oil in free acid form, which was evaluated with the CDR FoodLab® Junior analyzer to get anisidine and peroxide values using the Food Lab analyzer.

Series [2] in a line: Stability examination of L-lysine salts stored in clear vials with closed lids at room temperature (Table 1). It is filed as physicochemical. The note with it: for TOTOX: Totox=2*PV+AV; for AV / PV: closed lids, room temperature. On the procedure: The comparison of oxidative status of basic amino acid salts of PUFAs, starting material in ester form and fish oil in free acid form are assessed by measuring the PV and AV, then all the samples are subjected to the same oxidizing condition over a certain period of time, followed by the measuring PV and AV of the samples. The oxidizing conditions are selected from one of: 1) storage in closed containers at atmospheric condition, opened once daily for the first month, twice weekly for the second month, once weekly for the third month and twice a month up to 6 months; 2) storage in loosely closed containers exposed to air at 45° C. for 1 month.
as §1, §2
The molar ratio of EPA to L-lysine was 1:1. The mixture was stirred at atmospheric condition for 5 minutes to obtain a homogenous solution. 30 mL of ethanol was added to precipitate the L-lysine amino acid salt. […] About 4.5 g of EPA-Lys was stored in a 20 ml of clear vial with a diameter of 27 mm, which was placed with closed lids on the bench at room temperature for the stability examination for 90 days.
The molar ratio of DHA to L-lysine was 1:1. The mixture was stirred at atmospheric condition for 5 minutes to obtain a homogenous solution. 30 mL of ethanol was added to precipitate the L-lysine amino acid salt. […] About 4.5 g of […] was stored in a 20 ml of clear vial with a diameter of 27 mm, which was placed with closed lids on the bench at room temperature for the stability examination for 90 days.
The molar ratio of seal oil in free acid form to L-lysine was 1:1. The mixture was stirred at atmospheric condition for 5 minutes to obtain a homogenous solution. 35 mL of ethanol was added to precipitate the L-lysine amino acid salt.

Some results are limits rather than exact numbers.

With `CC/C=C\C/C=C\C/C=C\C/C=C\C/C=C\C/C=C\CCC(=O)O.NCCCC[C@H](N)C(=O)O` [DHA-Lys, L-Lysine Salt of Docosahexaenoic Acid], in series [1], the “AV (anisidine value)” value stood at 29.3 A/g and the “PV (peroxide value)” value was found to be 16.0 meqO2/kg. In series [2] (Time 1 d), the TOTOX worked out at 61.3, the AV is on record as 29.3 A/g and the PV was 16.0 meq O2/Kg. In addition, in series [2] (Time 61 d), the TOTOX amounted to 11.8, the AV was 4.0 A/g and the PV is given as 3.9 meq O2/Kg.

On to `CC/C=C\C/C=C\C/C=C\C/C=C\C/C=C\CCCC(=O)O.NCCCC[C@H](N)C(=O)O` [EPA-Lys, L-Lysine Salt of Eicosapentaenoic Acid], for which, in series [1], the “AV (anisidine value)” value came out at 9.5 A/g and the “PV (peroxide value)” value was found to be 6.0 meqO2/kg. In series [2] (Time 1 d), the TOTOX amounted to 21.5, the AV is 9.5 A/g and the PV is listed as 6.0 meq O2/Kg. Moreover, in series [2] (Time 61 d), the TOTOX was determined as 3.8, the AV is less than 0.5 A/g and the PV amounted to 1.9 meq O2/Kg.
